In patent publication US9096556B2, “Amorphous ritonavir co-precipitated” (HETERO RESEARCH FOUNDATION, priority 2011, dated 2015):

Assay: Solid-state stability of the amorphous form
Assay type: physicochemical

CC(C)c1nc(CN(C)C(=O)N[C@H](C(=O)N[C@@H](Cc2ccccc2)C[C@H](O)[C@H](Cc2ccccc2)NC(=O)OCc2cncs2)C(C)C)cs1 [(5S,8S,10S,11S)-10-Hydroxy-2-methyl-5-(1-methylethyl)-1-[2-(1-methylethyl)-4-thiazolyl]-3,6-dioxo-8,11-bis(phenylmethyl)-2,4,7,12-tetraazatridecan-13-oic acid 5-thiazolylmethyl ester]
stability of the amorphous form: unstable | time until the amorphous material changed into molten state: ≤ 30 min
